Reference: patent US7943638B2, “Carboxamide compound and use of the same” (Sumitomo Chemical Company, Limited, priority 2005, dated 2011)

System: wheat scab (Fusarium culmorum)
Test: Wheat scab (Fusarium culmorum) controlling effect test (preventive effect)
Format: in vivo
Details: 500 ppm flowable preparation, foliage spray on wheat (Shirogane komugi), 23° C. high humidity 4 days, then 23° C. greenhouse 3 days
Description: A plastic pot was charged with a sand loam, and a wheat (Name of plant variety: Shirogane komugi) was seeded, and was grown for 8 days in a greenhouse. Each flowable preparation of the present compound 4 which had been obtained according to Preparation Example 6 was diluted with water to a predetermined concentration (500 ppm) to prepare a spraying solution. Each spraying solution was foliage-sprayed so that the solution was sufficiently adhered to the above adhered to wheat leaves. After spraying, the wheat was air-dried to an extent that the spraying solution on the leaves was dried, then a spore suspension of wheat scab (Fusarium culmorum) (containing about 2000000 spores per 1 ml of the suspension) was spraying-inoculated (at a ratio of about 2 ml per one plant). After inoculation, the wheat was placed at 23° C. under high humidity for 4 days, then placed in a 23° C. greenhouse for 3 days. Thereafter, the controlling effect was investigated.
As a result, an area of a lesion in a plant treated with the present compound 4 was 10% or less of an area of a lesion in a non-treated plant.

Structure (SMILES): Cc1cc(O)c(C(=O)Nc2cccnc2)c(=O)n1C [present compound 4, N-(3-pyridyl)-1,6-dimethyl-4-hydroxy-2-oxo-1,2-dihydropyridine-3-carboxamide]
- area of a lesion in a treated plant relative to area of a lesion in a non-treated plant: ≤ 10%
